Test results: patent US9572786B2, “Use of capsiate or dihydrocapsidate” (Catholic University Industry Academy Cooperation Foundation, priority 2007, dated 2017)

What was measured:
NF-κB = assay: UV-induced NF-κB activation, immunohistochemical staining; format: cell-based, human; details: HaCaT cells; 25 μM; UV 100 J/m^2; 4 hours
Description: In order to investigate whether the transcription factor NF-κB is activated, the human keratinocyte cell line HaCaT cells were stained by immunohistochemical staining as follows.
The cells were placed on a 14 mm culture slide and cultured for 24 hours in DMEM containing 10% FBS. Subsequently, the cells were cultured for 24 hours in DMEM containing 1% FBS until starvation. Then, after treating with 25 μM capsiate for 30 minutes, followed by washing 3 times with PBS, UV was irradiated at an intensity of 100 J/m^2. Immediately after the UV irradiation, the cells were washed again with PBS and further cultured for 4 hours in DMEM containing 1% FBS, which was treated with capsiate at the same concentration as in the pre-treatment. The cells were fixed for 5 minutes using methanol for immunohistochemical staining.
The fixed cells were blocked using 10% normal goat serum and washed 3 times with PBS. After fluorescence staining NF-κB using rabbit anti-NF-κB antibody (Santa Cruz, USA) and Alexa 488-labeled anti-rabbit IgG secondary antibody (Invitrogen, USA), counter staining was carried out using Hoechst (Sigma, St. Louis, Mo.).

IL-8 = assay: UV-induced pro-inflammatory cytokine mRNA, RT-PCR: IL-8; format: cell-based, human; details: HaCaT cells; 10, 25, 50 μM; UV 100 J/m^2; 4 hours
Description: (§1) 1×10^6 HaCaT cells were placed on a 100 mm Petri dish and cultured for 24 hours in DMEM containing 10% FBS. Subsequently, the cells were cultured for 24 hours in DMEM containing 1% FBS until starvation. Then, after treating with capsiate at different concentrations (10 μM, 25 μM, 50 μM) for 30 minutes, followed by washing 3 times with PBS, UV was irradiated at an intensity of 100 J/m^2 to induce the production of cytokines. Immediately after the UV irradiation, the cells were washed again with PBS and further cultured for 4 hours in DMEM containing 1% FBS, which was treated with capsiate at the same concentration as in the pre-treatment.
Then, the degree of mRNA expression for IL-6, IL-8 and TNF-α induced mainly in the skin by the UV irradiation was evaluated by RT-PCR in order to measure the inhibition effect against the pro-inflammatory cytokines.
RNAs were extracted from the cells of each test group using Trizol (Invitrogen, USA) and used as template for PCR (PTC-225 Peltier thermal cycler, MJ Research, USA) to prepare cDNAs for each test group. Using the resultant cDNAs as template, the degree of mRNA expression for IL-6, IL-8 and TNF-α was measured by RT-PCR (Roter Gene 6000 series, Corbett Research, Australia) using commercial IL-6, IL-8 and TNF-α primers. […]

VEGF = assay: UV-induced VEGF expression, immunohistochemical staining; format: cell-based, human; details: HaCaT cells; 25 μM; UV 100 J/m^2; 24 hours
Description: First, the inhibition effect of capsiate on the expression of VEGF, the typical intracellular angiogenesis factor, was evaluated by immunohistochemical staining in order to investigate the inhibition effect of capsiate on angiogenesis.
HaCaT cells were placed on a 14 mm culture slide and cultured for 24 hours in DMEM containing 10% FBS. Subsequently, the cells were cultured for 24 hours in DMEM containing 1% FBS until starvation. Then, after treating with 25 μM capsiate for 30 minutes, followed by washing 3 times with PBS, UV was irradiated at an intensity of 100 J/m^2. Immediately after the UV irradiation, the cells were washed again with PBS and further cultured for 24 hours in DMEM containing 1% FBS, which was treated with capsiate at the same concentration as in the pre-treatment. The cells were fixed for 5 minutes using methanol and immunohistochemical staining was carried out in the same manner as in Example 2-3. For VEGF detection, rabbit anti-VEGF IgG antibody (Santa Cruz, USA) and Alexa 488-labeled anti-rabbit-IgG secondary antibody (Invitrogen, USA) were used.

MMP-9 = assay: UV-induced MMP-9 mRNA expression, RT-PCR; format: cell-based, human; details: HaCaT cells; 10, 25, 50 μM; UV 100 J/m^2; 36 hours
Description: The inhibition effect of capsiate on the expression of MMP-2 and MMP-9, which induce angiogenesis, was investigated through measurement of mRNA expression by RT-PCR and protein expression and activity measurement by zymography.
as §1, with “In order to investigate the inhibition effect of capsiate on MMP expression, 5×10^5 HaCaT” for “1×10^6 HaCaT”, “a 60” for “a 100”, “100 J/m^2.” for “100 J/m^2 to induce the production of cytokines.”, “for 36” for “for 4”, “pre-treatment. The degree of intracellular mRNA expression for MMP-2 and MMP-9 was measured by RT-PCR in the same manner as in Example 3. The degree of MMP expression was compared with that of the non-treated group.” for “pre-treatment.”

Ki67 = Ki67 expression in mouse skin, immunohistochemical staining; format: in vivo; details: mouse skin tissue of Example 5
Description: In order to investigate the effect of capsiate on various intracellular angiogenesis-related expression factors, the inhibition effect of capsiate on angiogenesis factors induced by UV was evaluated using the mouse tissue of Example 5.
Mouse skin tissue obtained by skin biopsy was immersed in OCT compound (Sakura Finetechnical Co. Ltd, Japan) and slowly frozen in liquid nitrogen. Thus prepared tissue was sliced with a thickness of 7 μm and fixed on a slide using acetone. The tissue was washed with distilled water and PBS and, after blocking for 1 hour using 10% normal goat serum, incubated at 4° C. for at least 16 hours using ki67 antibody (1:100, Neomarker, USA). After washing 3 times with PBS, the tissue was treated with Alexa 488-conjugated secondary antibody (Invitrogen, USA) for 30 minutes and then washed 3 times. The tissue was mounted and observed under a fluorescence microscope (Carl Zeiss, USA).

Sprague dawley (SD) rats = assay: Retinal vascular permeability in streptozotocin induced diabetic retinopathy; format: in vivo, rat; details: intravitreally injected 1-week after streptozotocin, observed at 3 weeks with dextran FITC
Description: Diabetes are induced by performing intraperitoneal injection of 60 mg/kg of streptozotocin (Sigma, St Louis, Mo., USA) into 8-week-old male Sprague dawley (SD) rats (250 g). 3 days later, serum glucose level was measured and rats having serum glucose level of […] and more are selected and used in experiments. Capsiate or capsaicin was intravitreally injected 1-week after the injection of streptozotocin, respectively. 3 weeks after the injection of streptozotocin, 0.5 ml of dextran FITC (25 mg/ml, MW 40K, Sigma, St Louis, Mo., USA) was injected through tail vein of tested rats to imaging retinal vascular pattern. Retinal tissues of the rats are isolated and observed by fluorescent microscopy (Olympus, Tokyo, Japan). The increase of retinal vascular permeability is observed in nonproliferative diabetic retinopathy, proliferative diabetic retinopathy and diabetic macular edema and result from cracks in vascular vessel due to breakdown of blood-retinal barrier (BRB).

COc1cc(COC(=O)CCCC/C=C/C(C)C)ccc1O [capsiate]
UV-induced migration of NF-κB into the nuclei (NF-κB): inhibits
expression of IL-8 (mRNA) increased by UV irradiation (IL-8): significantly decreases
UV-induced VEGF expression in the cytoplasm (VEGF): decreased
UV-induced mRNA expression of MMP-9 (MMP-9): decreased
expression of Ki67 increased by UV (Ki67): significantly inhibited
increment of retinal vascular permeability (Sprague dawley (SD) rats): inhibited
